Measurements from patent publication US12215140B2, “Method of stabilizing protein contained in specimen and solution for stabilizing protein contained in specimen” (EIKEN KAGAKU KABUSHIKI KAISHA, priority 2018, dated 2025).

System: hemoglobin-haptoglobin complex
Assay: Stability of hemoglobin (as hemoglobin-haptoglobin complex) in samples preserved at 37° C. in preservation solution containing 1 unit/L haptoglobin, Hb measured by latex agglutination method (Examples 1 to 7)
Set-up: species or system human
Summary of the method: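 Hemoglobin (~300 µg/L) in 0.5% fecal suspension, or without feces, held at 37 °C for 0–21 days in 40 mmol/L HEPES pH 6.8, 0.1% BSA, 0.1% NaN3, 1 unit/L haptoglobin, with 0–100 mmol/L phenylboronic acid ± sugars. Hb quantified by latex agglutination with anti-human Hb rabbit polyclonal; recovery (%) relative to day 0.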

[1] = Feces 3, phenylboronic acid 0.5 mmol/L, 37° C., 7 days
[2] = Feces 3, phenylboronic acid 0.5 mmol/L, 37° C., 14 days
[3] = Feces 3, phenylboronic acid 0.5 mmol/L, 37° C., 21 days
[4] = Feces 3, phenylboronic acid 1 mmol/L, 37° C., 7 days
[5] = Feces 3, phenylboronic acid 1 mmol/L, 37° C., 14 days
[6] = Feces 3, phenylboronic acid 1 mmol/L, 37° C., 21 days
[7] = Feces 3, phenylboronic acid 15 mmol/L, 37° C., 0 days
[8] = Feces 3, phenylboronic acid 15 mmol/L, 37° C., 7 days
[9] = Feces 3, phenylboronic acid 15 mmol/L, 37° C., 14 days
[10] = Feces 3, phenylboronic acid 15 mmol/L, 37° C., 21 days
[11] = Feces 3, phenylboronic acid 50 mmol/L, 37° C., 0 days
[12] = Feces 3, phenylboronic acid 50 mmol/L, 37° C., 7 days
[13] = Feces 3, phenylboronic acid 50 mmol/L, 37° C., 14 days
[14] = Feces 3, phenylboronic acid 50 mmol/L, 37° C., 21 days
[15] = Feces 3, phenylboronic acid 100 mmol/L, 37° C., 0 days
[16] = Feces 3, phenylboronic acid 100 mmol/L, 37° C., 7 days
[17] = Feces 3, phenylboronic acid 100 mmol/L, 37° C., 14 days
[18] = Feces 3, phenylboronic acid 100 mmol/L, 37° C., 21 days
[19] = No feces, phenylboronic acid 0.5 mmol/L, 37° C., 7 days
[20] = No feces, phenylboronic acid 0.5 mmol/L, 37° C., 14 days
[21] = No feces, phenylboronic acid 0.5 mmol/L, 37° C., 21 days
[22] = No feces, phenylboronic acid 1 mmol/L, 37° C., 7 days
[23] = No feces, phenylboronic acid 1 mmol/L, 37° C., 14 days
[24] = No feces, phenylboronic acid 1 mmol/L, 37° C., 21 days
[25] = No feces, phenylboronic acid 15 mmol/L, 37° C., 0 days
[26] = No feces, phenylboronic acid 15 mmol/L, 37° C., 7 days
[27] = No feces, phenylboronic acid 15 mmol/L, 37° C., 14 days
[28] = No feces, phenylboronic acid 15 mmol/L, 37° C., 21 days
[29] = No feces, phenylboronic acid 50 mmol/L, 37° C., 0 days
[30] = No feces, phenylboronic acid 50 mmol/L, 37° C., 7 days
[31] = No feces, phenylboronic acid 50 mmol/L, 37° C., 14 days
[32] = No feces, phenylboronic acid 50 mmol/L, 37° C., 21 days
[33] = No feces, phenylboronic acid 100 mmol/L, 37° C., 0 days
[34] = No feces, phenylboronic acid 100 mmol/L, 37° C., 7 days
[35] = No feces, phenylboronic acid 100 mmol/L, 37° C., 14 days
[36] = No feces, phenylboronic acid 100 mmol/L, 37° C., 21 days

Structure (SMILES): OB(O)c1ccccc1 [phenylboronic acid]
- Recovery ratio with respect to Hb concentration after 0 days (Feces 3, phenylboronic acid 0.5 mmol/L, 37° C., 0 days): 100%
- Hb concentration [1]: 133 µg/L
- Recovery ratio with respect to Hb concentration after 0 days [1]: 47%
- Hb concentration [2]: 104 µg/L
- Recovery ratio with respect to Hb concentration after 0 days [2]: 37%
- Hb concentration [3]: 93 µg/L
- Recovery ratio with respect to Hb concentration after 0 days [3]: 33%
- Recovery ratio with respect to Hb concentration after 0 days (Feces 3, phenylboronic acid 1 mmol/L, 37° C., 0 days): 100%
- Hb concentration [4]: 159 µg/L
- Recovery ratio with respect to Hb concentration after 0 days [4]: 57%
- Hb concentration [5]: 131 µg/L
- Recovery ratio with respect to Hb concentration after 0 days [5]: 47%
- Hb concentration [6]: 115 µg/L
- Recovery ratio with respect to Hb concentration after 0 days [6]: 41%
- Hb concentration (Feces 3, phenylboronic acid 15 mmol/L, no sugar, 0 days at 37° C.): 288 µg/L
- Hb concentration (Feces 3, phenylboronic acid 15 mmol/L, no sugar, 7 days at 37° C.): 224 µg/L
- Hb concentration (Feces 3, phenylboronic acid 15 mmol/L, no sugar, 14 days at 37° C.): 200 µg/L
- Hb concentration (Feces 3, phenylboronic acid 15 mmol/L, no sugar, 21 days at 37° C.): 185 µg/L
- Hb concentration [7]: 288 µg/L
- Recovery ratio with respect to Hb concentration after 0 days [7]: 100%
- Hb concentration [8]: 224 µg/L
- Recovery ratio with respect to Hb concentration after 0 days [8]: 78%
- Hb concentration [9]: 200 µg/L
- Recovery ratio with respect to Hb concentration after 0 days [9]: 69%
- Hb concentration [10]: 185 µg/L
- Recovery ratio with respect to Hb concentration after 0 days [10]: 64%
- Hb concentration [11]: 274 µg/L
- Recovery ratio with respect to Hb concentration after 0 days [11]: 100%
- Hb concentration [12]: 204 µg/L
- Recovery ratio with respect to Hb concentration after 0 days [12]: 74%
- Hb concentration [13]: 176 µg/L
- Recovery ratio with respect to Hb concentration after 0 days [13]: 64%
- Hb concentration [14]: 158 µg/L
- Recovery ratio with respect to Hb concentration after 0 days [14]: 58%
- Hb concentration [15]: 247 µg/L
- Recovery ratio with respect to Hb concentration after 0 days [15]: 100%
- Hb concentration [16]: 156 µg/L
- Recovery ratio with respect to Hb concentration after 0 days [16]: 63%
- Hb concentration [17]: 88 µg/L
- Recovery ratio with respect to Hb concentration after 0 days [17]: 36%
- Hb concentration [18]: 53 µg/L
- Recovery ratio with respect to Hb concentration after 0 days [18]: 21%
- Recovery ratio with respect to Hb concentration after 0 days (No feces, phenylboronic acid 0.5 mmol/L, 37° C., 0 days): 100%
- Hb concentration [19]: 248 µg/L
- Recovery ratio with respect to Hb concentration after 0 days [19]: 96%
- Hb concentration [20]: 243 µg/L
- Recovery ratio with respect to Hb concentration after 0 days [20]: 95%
- Hb concentration [21]: 246 µg/L
- Recovery ratio with respect to Hb concentration after 0 days [21]: 96%
- Recovery ratio with respect to Hb concentration after 0 days (No feces, phenylboronic acid 1 mmol/L, 37° C., 0 days): 100%
- Hb concentration [22]: 244 µg/L
- Recovery ratio with respect to Hb concentration after 0 days [22]: 92%
- Hb concentration [23]: 241 µg/L
- Recovery ratio with respect to Hb concentration after 0 days [23]: 91%
- Hb concentration [24]: 244 µg/L
- Recovery ratio with respect to Hb concentration after 0 days [24]: 92%
- Hb concentration (No feces, phenylboronic acid 15 mmol/L, no sugar, 0 days at 37° C.): 286 µg/L
- Hb concentration (No feces, phenylboronic acid 15 mmol/L, no sugar, 7 days at 37° C.): 262 µg/L
- Hb concentration (No feces, phenylboronic acid 15 mmol/L, no sugar, 14 days at 37° C.): 253 µg/L
- Hb concentration [25]: 286 µg/L
- Recovery ratio with respect to Hb concentration after 0 days [25]: 100%
- Hb concentration [26]: 262 µg/L
- Recovery ratio with respect to Hb concentration after 0 days [26]: 92%
- Hb concentration [27]: 253 µg/L
- Recovery ratio with respect to Hb concentration after 0 days [27]: 88%
- Hb concentration [28]: 264 µg/L
- Recovery ratio with respect to Hb concentration after 0 days [28]: 92%
- Hb concentration [29]: 260 µg/L
- Recovery ratio with respect to Hb concentration after 0 days [29]: 100%
- Hb concentration [30]: 242 µg/L
- Recovery ratio with respect to Hb concentration after 0 days [30]: 93%
- Hb concentration [31]: 228 µg/L
- Recovery ratio with respect to Hb concentration after 0 days [31]: 88%
- Hb concentration [32]: 235 µg/L
- Recovery ratio with respect to Hb concentration after 0 days [32]: 90%
- Hb concentration [33]: 239 µg/L
- Recovery ratio with respect to Hb concentration after 0 days [33]: 100%
- Hb concentration [34]: 198 µg/L
- Recovery ratio with respect to Hb concentration after 0 days [34]: 83%
- Hb concentration [35]: 183 µg/L
- Recovery ratio with respect to Hb concentration after 0 days [35]: 77%
- Hb concentration [36]: 178 µg/L
- Recovery ratio with respect to Hb concentration after 0 days [36]: 74%
- apparent recovery ratio (addition of 50 mmol/L or more phenylboronic acid): decreased
- decrease in the apparent recovery ratios (phenylboronic acid 50 mmol/L in preservation solutions to which a sugar (100 mmol/L) was added): not observed
- phenylboronic acid concentration at which the recovery ratio of hemoglobin reached the maximum (samples containing feces, 37° C.): 15 mmol/L
- improvement of recovery ratio by addition of phenylboronic acid (samples containing no fecal specimens): not observed
